Test results reported in patent publication US12297190B2, “Modulators of STING (stimulator of interferon genes)” (PFIZER INC., priority 2019, dated 2025).
Where a name gives a salt, the structure may show the parent alone.

Experiments:
R232-STING = R232-STING (Homo sapiens, UniProt Q86WV6, H232R); test: biochemical
STING [1] = molecular target: T1, STING (Homo sapiens, UniProt Q86WV6, G230A/H232R/R293Q/R71H); test: Phosphorylation of IRF3: THP-1 cell ELISA; assay type: cell-based; details: THP-1 cells, 3 hours incubation, phospho-IRF3 ELISA; read-out: THP-1 CELL P-IRF3 EC50
T1 construct: host or cells: THP-1 and THP-1 Lucia ISG cells
Protocol: Phosphorylation of IRF3: THP-1 Cell ELISA
STING activation results in recruitment of TBK1 and phosphorylation of IRF3 transcription factor before induction of type I interferons. THP-1 cells (InvivoGen) were grown in RPMI media plus 2 mM L-glutamine, 10% fetal bovine serum, and 0.5% Pen-Strep. 10^4 cells were seeded in 96-well plates and incubated overnight 37° C., 5% CO2. Compounds serial diluted compounds in media (final 0.5% DMSO) were added to the cells and incubated for an additional 3 hours. After incubation, the plates were centrifuged at 2000 rpm for 5 min. The cells were then lysed in 100 μl RIPA buffer and vortexed for 30 minutes at room temperature. 25 μl of lysate was then transferred to clear polystyrene High Bind plates that had been previously coated with mouse anti-human IRF-3 capture antibody (BD Pharmigen), and allowed to incubate at 4° C. for 16 hours. The plates were then washed and incubated with rabbit anti-phospho-IRF3 detection antibody (Cell Signaling Technologies) for 1.5 hours at room temperature. Finally, an HRP-linked secondary antibody (Cell Signaling Technologies) was added for 30 min before the Glo Substrate Reagent (R&D Systems) was used generate the luminescent signal. The signal was measured using a Perkin-Elmer Envision microplate reader. Data were normalized to “% effect” with a positive control STING agonist that was known to maximize the phosphorylated IRF3 signal and the negative control was DMSO.

STING [2] = molecular target: T1, STING; test: Interferon-β induction: THP-1 Lucia ISG reporter cell line; assay type: cell-based; details: THP-1 Lucia ISG cells, 24 hours incubation, luciferase reporter; read-out: THP-1 Lucia ISG Cells IFN-β EC50
Protocol: Interferon-β Induction: THP-1 ISG Reporter Cell Line
THP-1 Lucia™ ISG cells (InvivoGen) express the secreted luciferase “Lucia” reporter gene under the control of an IRF-inducible composite promotor comprised of five interferon response elements. THP-1 Lucia™ ISG cells were grown in RPMI media plus 2 mM L-glutamine, 10% fetal bovine serum, and 0.5% Pen-Strep. Hygromycin B and Zeocin were present to maintain stable transfection. 10^4 cells were seeded in 96-well plates and incubated overnight 37° C., 5% CO2. 50 μL of serial diluted compounds in media (final 0.5% DMSO) was and incubated for an additional 24 hours. After incubation, the plates were centrifuged at 2000 rpm for 10 min. 50 μl of cell culture supernatant of each well was transferred to a white, opaque 96-well plate. One pouch of QUANTI-Luc™ (InvivoGen) powder was prepared in 25 mL of endotoxin-free water and 100 μL of prepared warm QUANTI-Luc solution were added to each well containing the supernatant. The luminescence signal was measured using a Perkin-Elmer Envision microplate reader. Data were normalized to “% effect” with a positive control STING agonist that was known to maximize the luciferase signal and the negative control DMSO.

Sequence of R232-STING (Q86WV6 155-341 H232R): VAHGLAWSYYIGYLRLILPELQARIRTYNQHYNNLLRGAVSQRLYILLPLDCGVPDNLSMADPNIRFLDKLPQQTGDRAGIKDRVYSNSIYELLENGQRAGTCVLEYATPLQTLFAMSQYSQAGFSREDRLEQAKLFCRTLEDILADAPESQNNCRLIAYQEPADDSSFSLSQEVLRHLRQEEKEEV
T1 sequence (Q86WV6 whole entry R71H/G230A/H232R/R293Q): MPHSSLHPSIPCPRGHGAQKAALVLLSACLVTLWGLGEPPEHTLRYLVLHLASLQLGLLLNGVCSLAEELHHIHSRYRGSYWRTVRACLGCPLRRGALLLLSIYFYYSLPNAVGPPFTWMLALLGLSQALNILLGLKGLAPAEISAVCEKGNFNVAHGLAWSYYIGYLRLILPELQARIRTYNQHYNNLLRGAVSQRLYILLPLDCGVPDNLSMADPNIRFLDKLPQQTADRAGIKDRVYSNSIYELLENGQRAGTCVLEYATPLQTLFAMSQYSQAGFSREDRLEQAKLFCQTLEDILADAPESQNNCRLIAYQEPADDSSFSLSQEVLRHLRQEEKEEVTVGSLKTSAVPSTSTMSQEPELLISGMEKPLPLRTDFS

Row | Ki (R232-STING) [nM] | EC50 (STING [1]) [nM] | EC50 (STING [2]) [nM] | Compound
1 | 457 | > 33300 | > 33300 | CCn1nc(C)cc1-c1n[nH]c(-c2cc(C(N)=O)cc3c2cnn3CCN2C3CCC2COC3)n1 [YY23, 4-[3-(1-ethyl-3-methyl-1H-pyrazol-5-yl)-1H-1,2,4-triazol-5-yl]-1-[2-(3-oxa-8-azabicyclo[3.2.1]octan-8-yl)ethyl]-1H-indazole-6-carboxamide]
2 | 430 | 25100 | 23200 | CCn1nc(C)cc1-c1n[nH]c(-c2cc(C(N)=O)cc3c2cnn3CC)n1 [Example B01, 1-ethyl-4-[3-(1-ethyl-3-methyl-1H-pyrazol-5-yl)-1H-1,2,4-triazol-5-yl]-1H-indazole-6-carboxamide]
3 | 354 | > 33300 | > 100000 | CCn1nc(C)cc1-c1n[nH]c(-c2cc(C(N)=O)cc3c2cnn3CCN2CCO[C@@H](C)C2)n1 [YY24, 4-[3-(1-ethyl-3-methyl-1H-pyrazol-5-yl)-1H-1,2,4-triazol-5-yl]-1-{2-[(2S)-2-methylmorpholin-4-yl]ethyl}-1H-indazole-6-carboxamide]
4 | > 891 | > 100000 | > 100000 | Cc1cc(-c2n[nH]c(-c3c(F)c(C(N)=O)cc4c3cnn4C)n2)n(CCC(=O)O)n1 [YY21, 3-{5-[5-(6-carbamoyl-5-fluoro-1-methyl-1H-indazol-4-yl)-1H-1,2,4-triazol-3-yl]-3-methyl-1H-pyrazol-1-yl}propanoic acid]
5 | 337 | > 100000 | > 100000 | CCn1nc(C)cc1-c1nnc(-c2cc(C(N)=O)cc3c2cnn3[C@H](C)CN2CCOCC2)[nH]1 [YY07, 4-[5-(1-ethyl-3-methyl-1H-pyrazol-5-yl)-4H-1,2,4-triazol-3-yl]-1-[(2R)-1-(morpholin-4-yl)propan-2-yl]-1H-indazole-6-carboxamide]
6 | 4.7 | 140 | 130 | CCn1nc(C)c(F)c1-c1n[nH]c(-c2nc(C(N)=O)cc3c2cnn3C)n1 [Example C08, 4-[3-(1-ethyl-4-fluoro-3-methyl-1H-pyrazol-5-yl)-1H-1,2,4-triazol-5-yl]-1-methyl-1H-pyrazolo[4,3-c]pyridine-6-carboxamide]
7 | 277 | 96700 | 92800 | CCn1nc(C)c(F)c1-c1nc(-c2cc(C(N)=O)cc3c2cnn3CCCN2CCOCC2)n[nH]1 [Example C06, 4-[5-(1-ethyl-4-fluoro-3-methyl-1H-pyrazol-5-yl)-1H-1,2,4-triazol-3-yl]-1-[3-(morpholin-4-yl)propyl]-1H-indazole-6-carboxamide]
8 | 32.4 | 3600 | 2760 | CCn1nc(C)c(F)c1-c1nc(-c2nc(C(N)=O)cc3c2cnn3CCN2CCC(C#N)CC2)n(C)n1 [Example J02]
9 | 171 | > 100000 | > 100000 | Cc1cc(-c2n[nH]c(-c3cc(C(N)=O)cc4c3cnn4C(F)F)n2)n(CCC(=O)O)n1 [YY20, 3-(5-{5-[6-carbamoyl-1-(difluoromethyl)-1H-indazol-4-yl]-1H-1,2,4-triazol-3-yl}-3-methyl-1H-pyrazol-1-yl)propanoic acid]
10 | 437 | > 100000 | > 100000 | CCn1nc(C)cc1-c1nnc(-c2cc(C(N)=O)cc3c2cnn3CC[C@H](C)C2CCNCC2)[nH]1 (racemic) [YY18, 4-[5-(1-ethyl-3-methyl-1H-pyrazol-5-yl)-4H-1,2,4-triazol-3-yl]-1-[(3S)-3-(piperidin-4-yl)butyl]-1H-indazole-6-carboxamide]
11 | 195 | > 33300 | > 33300 | CCn1nc(C)cc1-c1n[nH]c(-c2cc(C(N)=O)cc3c2cnn3CCN2CCNC(=O)C2)n1 [YY26, 4-[3-(1-ethyl-3-methyl-1H-pyrazol-5-yl)-1H-1,2,4-triazol-5-yl]-1-[2-(3-oxopiperazin-1-yl)ethyl]-1H-indazole-6-carboxamide]
12 | 175 | > 100000 | > 100000 | CCn1nc(C)cc1-c1nnc(-c2cc(C(N)=O)cc3c2cc(C(=O)O)n3C)[nH]1 [YY19, 6-carbamoyl-4-[5-(1-ethyl-3-methyl-1H-pyrazol-5-yl)-4H-1,2,4-triazol-3-yl]-1-methyl-1H-indole-2-carboxylic acid]
13 | 8.3 | 240 | 340 | CCn1cc(C)c(O)c1-c1nc(-c2nc(C(N)=O)cc3c2cnn3C)cs1 [Example AG01, 4-[2-(1-ethyl-3-hydroxy-4-methyl-1H-pyrrol-2-yl)-1,3-thiazol-4-yl]-1-methyl-1H-pyrazolo[4,3-c]pyridine-6-carboxamide]
14 | 164 | > 10000 | > 11100 | CCn1nc(C)c(O)c1-c1n[nH]c(-c2nc(C(N)=O)cc3c2cnn3CCN2CC(F)C2)n1 [YY33, 4-[3-(1-ethyl-4-hydroxy-3-methyl-1H-pyrazol-5-yl)-1H-1,2,4-triazol-5-yl]-1-[2-(3-fluoroazetidin-1-yl)ethyl]-1H-pyrazolo[4,3-c]pyridine-6-carboxamide]
15 | 157 | > 10000 | > 13300 | CCn1nc(C)cc1-c1nc(-c2nc(C(N)=O)cc3c2cnn3C)n(CCCN)n1 [YY31, 4-[1-(3-aminopropyl)-3-(1-ethyl-3-methyl-1H-pyrazol-5-yl)-1H-1,2,4-triazol-5-yl]-1-methyl-1H-pyrazolo[4,3-c]pyridine-6-carboxamide]
16 | 29.4 | 6680 | 7480 | CCn1nc(C)cc1-c1n[nH]c(-c2cc(C(N)=O)cc3c2ccn3C)n1 [Example A02, 4-[3-(1-ethyl-3-methyl-1H-pyrazol-5-yl)-1H-1,2,4-triazol-5-yl]-1-methyl-1H-indole-6-carboxamide]
17 | 47.1 | > 100000 | > 100000 | Cc1nn(CCC(=O)O)c(-c2n[nH]c(-c3cc(C(N)=O)cc4c3cnn4C)n2)c1F [YY06, 3-{5-[5-(6-carbamoyl-1-methyl-1H-indazol-4-yl)-1H-1,2,4-triazol-3-yl]-4-fluoro-3-methyl-1H-pyrazol-1-yl}propanoic acid]
18 | 30.4 | 1160 | 1180 | CCn1nc(C)c(F)c1-c1c[nH]c(-c2cc(C(N)=O)cc3c2cnn3C)n1 [Example G02]
19 | 369 | > 100000 | > 100000 | CCn1nc(C)cc1-c1nnc(-c2cc(C(N)=O)cc3c2cnn3Cc2nc3c(o2)CNC3)[nH]1 [YY16, 1-[(5,6-dihydro-4H-pyrrolo[3,4-d][1,3]oxazol-2-yl)methyl]-4-[5-(1-ethyl-3-methyl-1H-pyrazol-5-yl)-4H-1,2,4-triazol-3-yl]-1H-indazole-6-carboxamide]
20 | 33.4 | 1500 | 1870 | CCn1nc(C)cc1-c1nc(-c2nc(C(N)=O)cc3c2cnn3C)c(C(C)N)s1 (racemic) [Compound W-7, 1-(4-(6-carbamoyl-1-methyl-1H-pyrazolo[4,3-c]pyridin-4-yl)-2-(1-ethyl-3-methyl-1H-pyrazol-5-yl)thiazol-5-yl)ethan-1-aminium trifluoroacetate]
21 | 92.7 | 770 | 680 | CCn1nc(C)c(F)c1-c1nc(-c2cc(C(N)=O)cn3c(C)ncc23)n[nH]1 [Example F01, 8-[5-(1-ethyl-4-fluoro-3-methyl-1H-pyrazol-5-yl)-1H-1,2,4-triazol-3-yl]-3-methylimidazo[1,5-a]pyridine-6-carboxamide]
